Results: ChEMBL document CHEMBL1138236, “Novel aminophenyl benzamide-type histone deacetylase inhibitors with enhanced potency and selectivity” (J Med Chem, 2007)

How the values were obtained:
Histone deacetylase 2 = Histone deacetylase 2 (Homo sapiens, UniProt Q92769)
Description: Inhibition of human recombinant HDAC2

Histone deacetylase 1 = Histone deacetylase 1 (Homo sapiens, UniProt Q13547)
Description: Inhibition of human recombinant HDAC1

[1] = Cytotoxicity against human mammary epithelial cells by MTT assay; format: cell-based; conditions: Epithelial cell
Histone deacetylase 8 = biological target: T1, Histone deacetylase 8 (Homo sapiens, UniProt Q9BY41); assay: Inhibition of human recombinant HDAC8
T1 sequence (Q9BY41 whole entry): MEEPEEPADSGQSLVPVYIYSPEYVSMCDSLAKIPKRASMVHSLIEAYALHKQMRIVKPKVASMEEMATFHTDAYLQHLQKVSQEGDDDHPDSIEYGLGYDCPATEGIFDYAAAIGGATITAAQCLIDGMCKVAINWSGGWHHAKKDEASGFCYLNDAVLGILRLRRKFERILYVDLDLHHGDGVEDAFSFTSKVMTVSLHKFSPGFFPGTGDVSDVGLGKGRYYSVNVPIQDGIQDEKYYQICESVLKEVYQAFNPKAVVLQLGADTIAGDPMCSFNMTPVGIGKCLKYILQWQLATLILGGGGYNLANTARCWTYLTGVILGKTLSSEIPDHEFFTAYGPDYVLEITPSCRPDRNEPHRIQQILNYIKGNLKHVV

Histone deacetylase 3 = Histone deacetylase 3 (Homo sapiens, UniProt O15379); assay: Inhibition of human recombinant HDAC3
Chain of Histone deacetylase 3 (O15379 whole entry): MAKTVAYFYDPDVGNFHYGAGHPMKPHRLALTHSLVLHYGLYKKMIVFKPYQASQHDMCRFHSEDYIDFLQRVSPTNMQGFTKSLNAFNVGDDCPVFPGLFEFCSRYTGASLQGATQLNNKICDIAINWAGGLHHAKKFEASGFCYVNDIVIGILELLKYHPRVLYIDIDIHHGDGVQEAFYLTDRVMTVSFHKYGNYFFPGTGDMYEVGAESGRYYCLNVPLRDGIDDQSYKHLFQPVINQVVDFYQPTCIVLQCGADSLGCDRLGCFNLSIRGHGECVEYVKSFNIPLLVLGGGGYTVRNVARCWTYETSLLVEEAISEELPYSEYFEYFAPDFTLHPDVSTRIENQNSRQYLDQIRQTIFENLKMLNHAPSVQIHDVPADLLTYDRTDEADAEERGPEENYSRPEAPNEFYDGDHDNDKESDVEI

HCT-116 = assay: Cytotoxicity against human HCT116 cells by MTT assay; format: functional, cell-based
Histone deacetylase = assay: Inhibition of HDAC in 293T cells; format: cell-based, Homo sapiens

Chain of Histone deacetylase 2 (Q92769 whole entry): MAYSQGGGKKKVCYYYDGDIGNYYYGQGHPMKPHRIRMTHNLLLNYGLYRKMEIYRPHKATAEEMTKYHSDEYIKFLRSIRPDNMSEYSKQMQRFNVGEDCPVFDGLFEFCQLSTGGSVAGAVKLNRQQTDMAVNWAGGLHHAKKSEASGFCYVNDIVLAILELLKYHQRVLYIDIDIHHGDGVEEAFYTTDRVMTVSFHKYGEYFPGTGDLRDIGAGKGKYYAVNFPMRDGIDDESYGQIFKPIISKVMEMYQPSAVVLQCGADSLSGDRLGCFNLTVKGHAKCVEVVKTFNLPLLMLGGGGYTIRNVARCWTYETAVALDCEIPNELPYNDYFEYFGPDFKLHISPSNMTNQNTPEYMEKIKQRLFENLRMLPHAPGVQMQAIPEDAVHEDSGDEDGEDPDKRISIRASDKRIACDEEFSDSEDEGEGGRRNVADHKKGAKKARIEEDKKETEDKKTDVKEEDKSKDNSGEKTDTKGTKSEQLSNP
Chain of Histone deacetylase 1 (Q13547 whole entry): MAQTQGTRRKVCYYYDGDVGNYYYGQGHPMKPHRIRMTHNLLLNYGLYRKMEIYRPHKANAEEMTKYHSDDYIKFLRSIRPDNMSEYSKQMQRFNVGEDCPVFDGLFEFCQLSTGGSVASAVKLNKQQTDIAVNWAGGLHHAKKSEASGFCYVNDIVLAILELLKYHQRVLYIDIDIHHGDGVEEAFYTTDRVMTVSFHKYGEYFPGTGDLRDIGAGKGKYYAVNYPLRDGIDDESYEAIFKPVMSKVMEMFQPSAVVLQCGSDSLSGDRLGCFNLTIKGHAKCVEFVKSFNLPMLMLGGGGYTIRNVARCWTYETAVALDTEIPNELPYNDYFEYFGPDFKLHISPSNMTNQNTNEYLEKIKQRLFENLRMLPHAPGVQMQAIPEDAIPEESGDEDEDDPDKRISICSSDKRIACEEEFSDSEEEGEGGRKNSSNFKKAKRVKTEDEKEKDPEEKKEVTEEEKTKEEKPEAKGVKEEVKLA

Compound | IC50 (Histone deacetylase 2) [nM] | IC50 (Histone deacetylase 1) [nM] | IC50 [1] [nM] | IC50 (Histone deacetylase 8) [nM] | IC50 (Histone deacetylase 3) [nM] | IC50 (HCT-116) [nM] | IC50 (Histone deacetylase) [nM]
COc1ccc(NCc2ccc(C(=O)Nc3ccccc3N)cc2)cc1OC | 500 | 440 |  |  |  |  | 
COc1ccc(NCc2ccc(C(=O)Nc3cc(-c4ccoc4)ccc3N)cc2)cc1OC | 70 | 50 |  |  |  |  | 
COc1ccc(NCc2ccc(C(=O)Nc3ccc(-c4cccs4)cc3N)cc2)cc1OC | > 10000 | > 10000 |  |  |  |  | 
COc1ccc(C(=O)Nc2cc(-c3cccs3)ccc2N)cc1 | 200 | 50 | > 50000 | > 20000 | > 20000 | 400 | 150
COc1ccc(NCc2ccc(C(=O)Nc3ccccc3O)cc2)cc1OC | 200 |  |  |  |  |  | 
COc1ccc(NCc2ccc(C(=O)Nc3cc(-c4cccs4)ccc3O)cc2)cc1OC | 60 | 40 |  |  |  |  | 
Nc1ccc(-c2cccs2)cc1NC(=O)c1ccc(CNC(=O)OCc2cccnc2)cc1 | 100 |  |  |  |  |  | 
CC(=O)Nc1ccc(C(=O)Nc2cc(-c3cccs3)ccc2N)cc1 |  |  | > 50000 | > 20000 |  | 500 | 
Nc1ccccc1NC(=O)c1ccc2nccnc2c1 | 2000 | 2000 | > 50000 | > 20000 | > 20000 | 11000 | 3000
COc1ccc(C(=O)Nc2ccccc2N)cc1 | 900 | 2000 | > 50000 | > 20000 | 1400 | 10000 | 3000
COc1ccc(NCc2ccc(C(=O)Nc3cc(-c4cccs4)ccc3N)cc2)cc1OC | 80 | 50 |  |  |  |  | 
COc1ccc(NCc2ccc(C(=O)Nc3cc(-c4ccccc4)ccc3N)cc2)cc1OC | 100 |  |  |  |  |  | 
Nc1ccc(-c2cccs2)cc1NC(=O)c1ccc2nccnc2c1 | 200 | 60 | 26000 | > 20000 | > 20000 | 900 | 900
COc1ccc(NCc2ccc(C(=O)Nc3cc(-c4ccsc4)ccc3N)cc2)cc1OC | 60 |  |  |  |  |  | 
COc1ccc(NCc2ccc(C(=O)Nc3cc(-c4cc5ccccc5s4)ccc3N)cc2)cc1OC | > 10000 | > 10000 |  |  |  |  | 
O=C(/C=C/c1ccc(CN(CCO)CCc2c[nH]c3ccccc23)cc1)NO [DACINOSTAT] |  |  | 1000 |  |  | < 50 | 
CC(=O)Nc1ccc(C(=O)Nc2ccccc2N)cc1 [TACEDINALINE] |  |  | > 50000 |  |  | 4000 | 
